According to US20120238532A1, “TREATMENT OF HUMAN OSTEOSARCOMA” (CEDARS-SINAI MEDICAL CENTER, priority 2009, published 2012):

How the values were obtained:
mTOR = mTOR (Homo sapiens, UniProt P42345); experiment: Western blotting, mTOR phosphorylation; type: cell-based; set-up: endogenous in cells; host or cells: MG-63 and SAOS-2 cells; conditions: MG-63 and SAOS-2 cells; at ED50, 2, 9, or 20 hours
Procedure: (§1) Changes in protein level by CuB were checked by Western blotting. […] After 2, 9, and 20 hours of exposure, cells were harvested and immediately lysed with RIPA buffer (Millipore—Upstate, Temecula, Calif.) supplemented with protease inhibitor cocktail (Roche, San Francisco, Calif.), 0.5 mM PMSF (Roche), and 50 mM NaF (Sigma). After 20 minutes of incubation on ice, protein concentrations were measured by Bradford assay with Bio Rad protein assay solution (Bio-Rad, Hercules, Calif.) and samples were adjusted to the same protein concentration. Samples were mixed with 2× Laemmli sample buffer (Bio-Rad) with 5% β-mercaptoethanol (Sigma) and incubated at 95° C. for 10 min to denature the protein. After brief incubation on ice, proteins were separated by SDS-PAGE, transferred to nitrocellulose membrane (Sigma), and blotted with antibodies from either Cell Signaling Technology (Danvers, Mass.) or Santa Cruz Biotechnology (Santa Cruz, Calif.). Target proteins were visualized by Supersignal West Dura Substrate (Thermo-Pierce, Rockford, Ill.). GAPDH protein was used as a loading control.

cyclin D1 = experiment: Western blotting, cyclin D1; type: cell-based, human; conditions: MG-63 cells
Procedure: as §1

MG-63 cells = experiment: MTT assay, MG-63 (dose-response, pulse-exposure, combination); type: cell-based, human; conditions: pulse-exposed at ED50 for 2, 9, and 20 hours
Procedure: 7 human OS cell lines (U2OS, G292, MG-63, HT-161, HOS, SAOS-2, and SJSA) were used in the study. Each cell line except HT-161 was obtained from the American Type Culture Collection (ATCC, Rockville, Md.). HT-161 was obtained from Dr. Emil Bogenmann (13). All cell lines were tested and authenticated prior to use according to cell line verification test recommendations by ATCC. OS cell lines were maintained in DMEM medium (Mediatech Inc., Herndon, Va.) supplemented with 10% fetal bovine serum (FBS; Atlanta Biological, Lawrenceville, Ga.) in a humidified incubator at 37° C. supplied with 5% CO2. Only the cells in exponential growth phase were used in the study.
Cell growth and survival were measured by 3-(4,5-dimethylthiazol-2-yl)-2,5-diphenyltetrazolium bromide (MTT) assay. […] After 48 hours of incubation, 10 μl of 5 mg/ml MTT solution (Sigma-Aldrich, St. Louis, Mo.) was added to each well and incubated further for 2 hours. […] For pulse-exposure experiments, MG-63 and SAOS-2 cells were seeded in 96-well plates and exposed to CuB at their ED50. After 2, 9, and 20 hours of exposure, cells were washed twice with PBS and incubated further in CuB-free media. Cell growth was checked by MTT assay at 24, 48, and 72 hours.
Calcusyn 2.0 (Biosoft, Ferguson, Mo.) was used for CI analysis.

Blood counts in mice = type: in vivo; conditions: day 35
Procedure: Whole blood samples were obtained by submandibular bleeding and serum samples were harvested with serum separator tubes (BD Biosciences). Blood count and serum chemistry results were obtained by the Hemagen Analyst Benchtop Chemistry System (Hemagen Diagnostics, Inc. Columbia, Md.). Colony-forming cell (CFC) assays were performed as previously described (18).

SAOS-2 cells = experiment: Morphological changes (crystal violet staining), SAOS-2; type: cell-based, human
Procedure: FIG. 2. (A) Graphical representation of the effect of CuB on MG-63 and SAOS-2 cells. Cells were exposed to CuB at their ED50 (70 nM for MG-63 and 50 nM for SAOS-2 cells). Time-dependent antiproliferative activity of CuB on MG-63 and SAOS-2 cells measured by pulse-exposure experiments. Cells were exposed to CuB for 2, 9, or 20 hours, washed extensively, and cultured in the absence of CuB for an additional 24, 48, and 72 hours. Cell growth was measured by MTT assay. Measurements were repeated in triplicates. Data represent mean±SD. Asterisks (**) represent p<0.001 vs DMSO control by t-test. (B) Morphological changes of MG-63 and SAOS-2 cells after exposure to cucurbitacin B. Cells with normal morphology (top) were compared to rounded cells (middle) and multinucleated cells (bottom). […] Representative cells are shown. 400×; scale bar=50 μm. (C) Graphical representation of G2/M cell cycle arrest after 20 hours of exposure to cucurbitacin B. Cells were stained with propidium iodide (PI) and analyzed by FACS. (D) Graphical representation of apoptosis after 72 hours of exposure to cucurbitacin B. Cells were stained with PI and Annexin V-FITC, and analyzed by FACS.

[1] = Body weight and side-effects during xenograft treatment; type: in vivo, mice; conditions: week 1, returned to normal in subsequent weeks
Procedure: All animal experiments strictly followed the guidelines of Cedars-Sinai Medical Center and the National Institute of Health (NIH). Female nu/nu athymic nude mice (5-6 weeks old; average weight 21 g; specific pathogen-free) from Harlan Laboratories (Indianapolis, Ind.) were maintained in pathogen-free condition with sterilized chow and water. 5×10^6 cells of MG-63 cells were mixed with 200 μl of Matrigel solution (BD Biosciences) per injection, and the mixture was injected subcutaneously on the upper flanks of nude mice. After 24 hours, tumor size was measured, and any outliers were ruled out by one-way analysis of variance (ANOVA) test. […] The dose of LD-MTX was the murine equivalent of the human dose of LD-MTX. The conversion was made using dose translation formula by Reagan-Shaw et al., (15). […] Body weights were monitored every 2 days. Tumor size was measured every 2 days, and the tumor volume was calculated using the following formula: A (length)×B (width)×C (height)×0.5236 (16). The experiment was stopped at day 35, and all mice were sacrificed. The presence of metastatic spread was examined macroscopically at the time of autopsy followed by histological examination. At least two tumors from each group were snap-frozen in liquid nitrogen for Western blotting.

ERK = experiment: Western blotting, ERK phosphorylation; type: cell-based, human; conditions: MG-63 and SAOS-2 cells
Procedure: as §1

CC(=O)OC(C)(C)/C=C/C(=O)[C@](C)(O)[C@H]1[C@H](O)C[C@@]2(C)[C@@H]3CC=C4[C@H](C[C@H](O)C(=O)C4(C)C)[C@]3(C)C(=O)C[C@]12C [CuB, cucurbitacin B]
mTOR phosphorylation at S2448 and S2481 (mTOR): inhibition of mTOR phosphorylation at S2448 and S2481 without affecting the total level of mTOR
levels of cyclin D1 (cyclin D1): Decrease in the levels of cyclin D1 occurred in MG-63
cell death after pulse-exposure (MG-63 cells): longer exposure to CuB induced more cell death
Basophils (Blood counts in mice; HD-CuB 1.0 mg/kg): 0.05 ± 0.07 K/μl
Eosinophils (Blood counts in mice; HD-CuB 1.0 mg/kg): 0.15 ± 0.07 K/μl
Hb (Blood counts in mice; HD-CuB 1.0 mg/kg): 10.10 ± 0.42 g/dL
Lymphocytes (Blood counts in mice; HD-CuB 1.0 mg/kg): 2.90 ± 0.71 K/μl
Monocytes (Blood counts in mice; HD-CuB 1.0 mg/kg): 0.35 ± 0.07 K/μl
Neutrophills (Blood counts in mice; HD-CuB 1.0 mg/kg): 2.10 ± 0.42 K/μl
Platelets (Blood counts in mice; HD-CuB 1.0 mg/kg): 651 ± 52.33 K/μl
RBCs (Blood counts in mice; HD-CuB 1.0 mg/kg): 7.78 ± 0.45 M/μl
WBCs (Blood counts in mice; HD-CuB 1.0 mg/kg): 5.55 ± 1.34 K/μl
Basophils (Blood counts in mice; LD-CuB 0.5 mg/kg): 0.00 ± 0.00 K/μl
Eosinophils (Blood counts in mice; LD-CuB 0.5 mg/kg): 0.01 ± 0.01 K/μl
Hb (Blood counts in mice; LD-CuB 0.5 mg/kg): 9.60 ± 0.85 g/dL
Lymphocytes (Blood counts in mice; LD-CuB 0.5 mg/kg): 2.63 ± 0.24 K/μl
Monocytes (Blood counts in mice; LD-CuB 0.5 mg/kg): 0.18 ± 0.03 K/μl
Neutrophills (Blood counts in mice; LD-CuB 0.5 mg/kg): 1.42 ± 0.30 K/μl
Platelets (Blood counts in mice; LD-CuB 0.5 mg/kg): 742 ± 115.97 K/μl
RBCs (Blood counts in mice; LD-CuB 0.5 mg/kg): 7.21 ± 1.00 M/μl
WBCs (Blood counts in mice; LD-CuB 0.5 mg/kg): 4.23 ± 0.04 K/μl
morphological changes (SAOS-2 cells; 2 hour exposure): Rapid loss of pseudopodia and rounding
morphological changes (SAOS-2 cells; 9 hour-exposure): multinuclearity which was not reversed by CuB removal
initial weight loss ([1]; HD-CuB 1.0 mg/kg): up to 5%
initial weight loss ([1]; LD-CuB 0.5 mg/kg): up to 5%
ERK phosphorylation (ERK): inhibited ERK phosphorylation without changing the total levels of ERK in both cells
